Results: patent US20130096305A1, “[…] […]” (priority 2010, published 2013)

Tested on: HIV-1 LAI envelope single-round infectious reporter virus
Experiment: Single-round infectious luciferase reporter virus infection of MT2 cells
Type: cell-based
Conditions: Human immunodeficiency virus 1, MT2, 72 h
Excerpt: • Virus production—Human embryonic Kidney cell line, 293T (HEK 293T), was propagated in Dulbecco's Modified Eagle Medium (Invitrogen, Carlsbad, Calif.) containing 10% fetal Bovine serum (FBS, Sigma, St. Louis, Mo.). The human T-cell leukemia cell MT2 (AIDS Research and Reference Reagent Program, Cat. 237) was propagated in RPMI 1640 (Invitrogen, Carlsbad, Calif.) containing 10% fetal bovine serum (FBS, Hyclone, Logan, Utah) • Virus infection—Single-round infectious reporter virus was produced by co-transfecting HEK 293T cells with plasmide expressing the HIV-1 LAI envelope along with a plasmid containing an HIV-1 LAI proviral cDNA with the envelope gene replaced by a firefly luciferase reporter gene (Chen et al, Ref 41). Transfections were performed using lipofectAMINE PLUS reagent as described by the manufacturer (Invitrogen, Carlsbad, Calif.).
• 1. MT2 cells were plated in black, 384 well plates at a cell density of 5×10^3 cells per well in 25 μl RPMI 1640 containing 10% FBS. • 2. Compound (diluted in dimethylsulfoxide and growth medium) was added to cells at 12.5 μl/well, so that the final assay concentration would be ≦50 nM. • 3. 12.5 μl of single-round infectious reporter virus in Dulbecco's Modified Eagle Medium was added to the plated cells and compound at an approximate multiplicity of infection (MOI) of 0.01, resulting in a final volume of 50 μl per well. • 4. Virus-infected cells were incubated at 37 degrees Celsius, in a CO2 incubator, and harvested 72 h after infection. • 5. Viral infection was monitored by measuring luciferase expression in the infected cells using a luciferase reporter gene assay kit (Steady-Glo, Promega, Madison, Wis.) as described by the manufacturer. Luciferase activity was then quantified by measuring luminescence using an EnVision Multilabel Plate Readers (PerkinElmer, Waltham, Mass.). • 6. The percent inhibition for each compound was calculated by quantifying the level of luciferase expression in cells infected in the presence of each compound as a percentage of that observed for cells infected in the absence of compound and subtracting such a determined value from 100. • 7. An EC50 provides a method for comparing the antiviral potency of the compounds of this disclosure. The effective concentration for fifty percent inhibition (EC50) was calculated with the Microsoft Excel Xlfit curve fitting software. For each compound, curves were generated from percent inhibition calculated at 10 different concentrations by using a four paramenter logistic model (model 205).

| SMILES | EC50 |
| --- | --- |
| [2H]c1c([2H])c([2H])c(C(=O)N2C([2H])([2H])C([2H])([2H])N(C(=O)C(=O)c3c[nH]c4c(OC)ncc(OC)c34)C([2H])([2H])C2([2H])[2H])c([2H])c1[2H] [Compound 0001] | 670 pM |
| [2H]c1c([2H])c([2H])c(C(=O)N2CCN(C(=O)C(=O)c3c[nH]c4c(OC)ncc(OC)c34)CC2)c([2H])c1[2H] [Compound 0002] | 630 pM |
| [2H]C1([2H])N(C(=O)C(=O)c2c[nH]c3c(OC)ncc(OC)c23)C([2H])([2H])C([2H])([2H])N(C(=O)c2ccccc2)C1([2H])[2H] [Compound 0003] | 550 pM |
| [2H]c1c([2H])c([2H])c(C(=O)N2C([2H])([2H])C([2H])([2H])N(C(=O)C(=O)c3c[nH]c4c(-n5ccnn5)ncc(OC)c34)C([2H])([2H])C2([2H])[2H])c([2H])c1[2H] [Compound 0004] | 100 pM |
| [2H]c1c([2H])c([2H])c(C(=O)N2CCN(C(=O)C(=O)c3c[nH]c4c(-n5ccnn5)ncc(OC)c34)CC2)c([2H])c1[2H] [Compound 0005] | 240 pM |
| [2H]C1([2H])N(C(=O)C(=O)c2c[nH]c3c(-n4ccnn4)ncc(OC)c23)C([2H])([2H])C([2H])([2H])N(C(=O)c2ccccc2)C1([2H])[2H] [Compound 0006] | 80 pM |
| [2H]c1c([2H])c([2H])c(C(=O)N2C([2H])([2H])C([2H])([2H])N(C(=O)C(=O)c3c[nH]c4c(-n5ccnn5)ncc(F)c34)C([2H])([2H])C2([2H])[2H])c([2H])c1[2H] [Compound 0007] | 110 pM |
| [2H]c1c([2H])c([2H])c(C(=O)N2CCN(C(=O)C(=O)c3c[nH]c4c(-n5ccnn5)ncc(F)c34)CC2)c([2H])c1[2H] [Compound 0008] | 100 pM |
| [2H]C1([2H])N(C(=O)C(=O)c2c[nH]c3c(-n4ccnn4)ncc(F)c23)C([2H])([2H])C([2H])([2H])N(C(=O)c2ccccc2)C1([2H])[2H] [Compound 0009] | 140 pM |
| [2H]c1c([2H])c([2H])c(C(=O)N2C([2H])([2H])C([2H])([2H])N(C(=O)C(=O)c3c[nH]c4c(-n5cnc(C)n5)ncc(OC)c34)C([2H])([2H])C2([2H])[2H])c([2H])c1[2H] [Compound 0010] | 60 pM |
| [2H]c1c([2H])c([2H])c(C(=O)N2CCN(C(=O)C(=O)c3c[nH]c4c(-n5cnc(C)n5)ncc(OC)c34)CC2)c([2H])c1[2H] [Compound 0011] | 120 pM |
| [2H]C1([2H])N(C(=O)C(=O)c2c[nH]c3c(-n4cnc(C)n4)ncc(OC)c23)C([2H])([2H])C([2H])([2H])N(C(=O)c2ccccc2)C1([2H])[2H] [Compound 0012] | 70 pM |
